Data taken from US20160311788A1, “Antifouling Compounds And Use Thereof” (National University of Singapore, priority 2008, published 2016).

Key:
[1] = tested on: Escherichia coli (Strain K12; ATCC 15222); assay: disc inhibition assay, REF 1; type: cell-based
Experimental: (§1) 13 strains of marine bacteria were isolated from fouling communities located in the coastal waters around Singapore. These were characterized in earlier studies and reported in Teo et al. (U.S. patent application Ser. No. 11/265,833) and Choong et al (in prep). In addition, four reference bacterial strains were added tested: Escherichia coli (Strain K12, ATCC 15222), E. coli (strain DH5a), Pseudomonas aeruginosa (strain LMG 12228; ATCC 15692) and P. putida (strain KT2440; ATCC 47054). All the bacteria were also tested against five antibiotics: ampicillin (AMP), tetracycline (TETR), erythromycin (ERY), chloramphenicol (CHL) and streptomycin (STREP).
(§2) Disks comprising the compounds to be tested were prepared as follows. The antibacterial assay, the pure compounds were made up to a concentration of 2 mgml^−1 in DMSO. 25 μl of the stock was pipetted onto each 6 mm sterile disc (Macherey-Nagel #484000) to obtain 50 μg of compound per disc. Equivalent volume of DMSO was used inoculated for the control.
(§3) For all disk inhibition assays, bacterial cultures were grown in marine broth (Pronadisa #1217.00). Sterile swabs dipped into the cultures were used to inoculate Marine Agar plates with a bacterial lawn by smearing the culture over the surface. After inoculating the plates, discs with antibiotics, pharmaceuticals or control blanks were placed on each plate. Each concentration of antibiotic or pharmaceutical was tested with two replicates. After the disks were placed on the agar surface, plates were incubated overnight in the dark at 35° C. After incubation, plates were examined for zones of inhibition or clearing around control and treated disks. The diameter of any zone of clearing or inhibition was measured using Vernier calipers. There were two replicates per treatment, and the average was taken. There was no zone of inhibition around the control blanks in all the assays.

[2] = tested on: marine bacteria strain S29; assay: disc inhibition assay, strain S29; type: cell-based, Bacillus hwajinpoensis; conditions: Guptibacillus hwajinpoensis, S29, 24 h
In short: (§4)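 Zone-of-inhibition diameters (caliper, n=2 averaged) were recorded after overnight dark incubation at 35° C. Test discs of 6 mm bore 50 μg compound delivered in DMSO, placed on lawns of the marine strain grown in marine broth and spread on Marine Agar; solvent discs served as controls.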

[3] = tested on: Pseudomonas putida (Strain KT2440; BCRC 10459); assay: disc inhibition assay, REF 4; type: cell-based
Experimental: as §1, §2, §3

[4] = tested on: Pseudomonas aeruginosa (strain LMG 12228; ATCC 15692); assay: disc inhibition assay, REF 3; type: cell-based
Experimental: as §1, §2, §3

[5] = tested on: marine bacteria strain S27; assay: disc inhibition assay, strain S27; type: cell-based, Tenacibaculum lutimaris
In short: as §4

[6] = tested on: marine bacteria strain S4; assay: disc inhibition assay, strain S4; type: cell-based, Bacillus algicola; conditions: Guptibacillus algicola, S4, 24 h
In short: as §4

[7] = tested on: marine bacteria strain S17; assay: disc inhibition assay, strain S17; type: cell-based, Gordonia terrae
In short: as §4

[8] = tested on: marine bacteria strain S14; assay: disc inhibition assay, strain S14; type: cell-based, Vibrio probioticus
[9] = tested on: marine bacteria strain S28; assay: disc inhibition assay, strain S28; type: cell-based, Arthrobacter protophormial
In short: as §4

[10] = tested on: marine bacteria strain S3; assay: disc inhibition assay, strain S3; type: cell-based, Erythrobacter aquimaris
In short: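 Disc inhibition assay against a marine bacterial strain isolated from fouling communities in Singapore coastal waters. The strain was grown in marine broth and swabbed over Marine Agar plates as a lawn. 6 mm sterile discs loaded with compound in DMSO, or DMSO controls, were placed on the plates and incubated overnight in the dark at 35° C.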

[11] = tested on: marine bacteria strain S18; assay: disc inhibition assay, strain S18; type: cell-based, Microbacterium esteraromaticum
[12] = tested on: marine bacteria strain S10; assay: disc inhibition assay, strain S10; type: cell-based, Halobacillus trueperi; conditions: Halobacillus trueperi, S10, 24 h
In short: as §4

[13] = tested on: marine bacteria strain S1; assay: disc inhibition assay, strain S1; type: cell-based, Rhodovulum iodosum
In short: as §4

[14] = tested on: marine bacteria strain S16; assay: disc inhibition assay, strain S16; type: cell-based, Pseudoalteromonas piscicida
In short: as §4

[15] = tested on: Escherichia coli (Strain DH5a); assay: disc inhibition assay, REF 2; type: cell-based
Experimental: as §1, §2, §3

[16] = tested on: marine bacteria strain S9; assay: disc inhibition assay, strain S9; type: cell-based, Bacillus algicola; conditions: Guptibacillus algicola, S9, 24 h
In short: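 50 μg compound/6 mm disc (from 2 mg/ml DMSO stock); DMSO blank disc control. Lawn swabbed on Marine Agar from marine broth culture. Overnight, 35° C, dark. Readout: inhibition zone diameter (calipers), mean of 2 replicates.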

[17] = tested on: marine bacteria strain S30; assay: disc inhibition assay, strain S30; type: cell-based, Bacillus borophilicus; conditions: Bacillus, S30, 24 h
In short: as §4

SMILES: CN(C)[C@@H]1C(O)=C(C(N)=O)C(=O)[C@@]2(O)C(O)=C3C(=O)c4c(O)cccc4[C@@](C)(O)[C@H]3C[C@@H]12 [TETR, Tetracycline, reference compound]
- zone of inhibition ([1]; REF 1, 5 ug): + (2-5 mm zone of inhibition around each disk was observed.)
- zone of inhibition ([1]; REF 1, 30 ug): ++ (5-10 mm zone was observed.)
- zone of inhibition at 5 µg/disc ([2]; strain 29, 5 ug): 2 to 5 mm
- zone of inhibition at 30 µg/disc ([2]; strain 29, 30 ug): 5 to 10 mm
- zone of inhibition ([3]; REF 4, 5 ug): ++ (5-10 mm zone was observed.)
- zone of inhibition ([3]; REF 4, 30 ug): ++ (5-10 mm zone was observed.)
- zone of inhibition ([4]; REF 3, 5 ug): + (2-5 mm zone of inhibition around each disk was observed.)
- zone of inhibition ([4]; REF 3, 30 ug): ++ (5-10 mm zone was observed.)
- zone of inhibition at 30 µg/disc ([5]; Tenacibaculum lutimaris, S27, 24 h, strain 27, 30 ug): 2 to 5 mm
- zone of inhibition ([5]; strain 27, 5 ug): −
- zone of inhibition at 5 µg/disc ([6]; strain 4, 5 ug): 2 to 5 mm
- zone of inhibition at 30 µg/disc ([6]; strain 4, 30 ug): 5 to 10 mm
- zone of inhibition ([7]; strain 17, 5 ug): −
- zone of inhibition ([7]; strain 17, 30 ug): −
- zone of inhibition at 30 µg/disc ([8]; Vibrio, S14, 24 h): 2 to 5 mm
- zone of inhibition ([8]; strain 14, 5 ug): −
- zone of inhibition at 30 µg/disc ([9]; Arthrobacter, S28, 24 h, strain 28, 30 ug): 2 to 5 mm
- zone of inhibition ([9]; strain 28, 5 ug): −
- zone of inhibition ([10]; strain 3, 5 ug): −
- zone of inhibition ([10]; strain 3, 30 ug): −
- zone of inhibition at 30 µg/disc ([11]; Microbacterium esteraromaticum, S18, 24 h, strain 18, 30 ug): 2 to 5 mm
- zone of inhibition ([11]; strain 18, 5 ug): −
- zone of inhibition at 5 µg/disc ([12]; strain 10, 5 ug): 2 to 5 mm
- zone of inhibition at 30 µg/disc ([12]; strain 10, 30 ug): 2 to 5 mm
- zone of inhibition ([13]; strain 1, 5 ug): −
- zone of inhibition ([13]; strain 1, 30 ug): −
- zone of inhibition ([14]; strain 16, 5 ug): −
- zone of inhibition ([14]; strain 16, 30 ug): −
- zone of inhibition ([15]; REF 2, 5 ug): + (2-5 mm zone of inhibition around each disk was observed.)
- zone of inhibition ([15]; REF 2, 30 ug): ++ (5-10 mm zone was observed.)
- zone of inhibition at 5 µg/disc ([16]; strain 9, 5 ug): 2 to 5 mm
- zone of inhibition at 30 µg/disc ([16]; strain 9, 30 ug): 5 to 10 mm
- zone of inhibition at 5 µg/disc ([17]; strain 30, 5 ug): 2 to 5 mm
- zone of inhibition at 30 µg/disc ([17]; strain 30, 30 ug): 2 to 5 mm

SMILES: [H]/N=C(/N)N[C@H]1[C@H](O)[C@@H](O)[C@H](O[C@@H]2O[C@@H](C)[C@](O)(C=O)[C@H]2O[C@@H]2O[C@@H](CO)[C@H](O)[C@@H](O)[C@@H]2NC)[C@@H](N/C(N)=N\[H])[C@@H]1O [STREP, Streptomycin, reference compound]
- zone of inhibition ([1]; REF 1, 10 ug): + (2-5 mm zone of inhibition around each disk was observed.)
- zone of inhibition ([1]; REF 1, 25 ug): ++ (5-10 mm zone was observed.)
- zone of inhibition at 10 µg/disc ([2]; strain 29, 10 ug): 2 to 5 mm
- zone of inhibition at 25 µg/disc ([2]; strain 29, 25 ug): 5 to 10 mm
- zone of inhibition ([3]; REF 4, 10 ug): + (2-5 mm zone of inhibition around each disk was observed.)
- zone of inhibition ([3]; REF 4, 25 ug): ++ (5-10 mm zone was observed.)
- zone of inhibition ([4]; REF 3, 10 ug): + (2-5 mm zone of inhibition around each disk was observed.)
- zone of inhibition ([4]; REF 3, 25 ug): ++ (5-10 mm zone was observed.)
- zone of inhibition ([5]; strain 27, 10 ug): −
- zone of inhibition ([5]; strain 27, 25 ug): −
- zone of inhibition at 10 µg/disc ([6]; strain 4, 10 ug): 2 to 5 mm
- zone of inhibition at 25 µg/disc ([6]; strain 4, 25 ug): 5 to 10 mm
- zone of inhibition at 10 µg/disc ([7]; Gordonia terrae, S17, 24 h, strain 17, 10 ug): 2 to 5 mm
- zone of inhibition at 25 µg/disc ([7]; Gordonia terrae, S17, 24 h, strain 17, 25 ug): 5 to 10 mm
- zone of inhibition at 10 µg/disc ([8]; Vibrio, S14, 24 h): 2 to 5 mm
- zone of inhibition at 25 µg/disc ([8]; Vibrio, S14, 24 h): 2 to 5 mm
- zone of inhibition at 10 µg/disc ([9]; Arthrobacter, S28, 24 h, strain 28, 10 ug): 2 to 5 mm
- zone of inhibition at 25 µg/disc ([9]; Arthrobacter, S28, 24 h, strain 28, 25 ug): 5 to 10 mm
- zone of inhibition ([10]; strain 3, 10 ug): −
- zone of inhibition ([10]; strain 3, 25 ug): −
- zone of inhibition at 10 µg/disc ([11]; Microbacterium esteraromaticum, S18, 24 h, strain 18, 10 ug): 2 to 5 mm
- zone of inhibition at 25 µg/disc ([11]; Microbacterium esteraromaticum, S18, 24 h, strain 18, 25 ug): 5 to 10 mm
- zone of inhibition at 10 µg/disc ([12]; strain 10, 10 ug): 2 to 5 mm
- zone of inhibition at 25 µg/disc ([12]; strain 10, 25 ug): 2 to 5 mm
- zone of inhibition at 10 µg/disc ([13]; Rhodovulum iodosum, S1, strain 1, 10 ug): 5 to 10 mm
- zone of inhibition at 25 µg/disc ([13]; Rhodovulum iodosum, S1, strain 1, 25 ug): > 10 mm
- zone of inhibition at 10 µg/disc ([14]; Pseudoalteromonas piscicida, S16, 24 h, strain 16, 10 ug): 2 to 5 mm
- zone of inhibition at 25 µg/disc ([14]; Pseudoalteromonas piscicida, S16, 24 h, strain 16, 25 ug): 5 to 10 mm
- zone of inhibition ([15]; REF 2, 10 ug): −
- zone of inhibition ([15]; REF 2, 25 ug): −
- zone of inhibition at 10 µg/disc ([16]; strain 9, 10 ug): 2 to 5 mm
- zone of inhibition at 25 µg/disc ([16]; strain 9, 25 ug): 2 to 5 mm
- zone of inhibition at 10 µg/disc ([17]; strain 30, 10 ug): 2 to 5 mm
- zone of inhibition at 25 µg/disc ([17]; strain 30, 25 ug): 5 to 10 mm
